Assay results from publication doi:10.1101/2023.05.15.540887, “Comparative analysis of drug-like EP300/CREBBP acetyltransferase inhibitors” (bioRxiv, 2023).
Read-outs that look alike come from different tables or passages of the source.

Tests used:
HCC-2998 = assay: NCI-60 growth inhibition (sulforhodamine B); type: cell-based, human; settings: HCC-2998 (Colon Cancer), negative log of Molar conc., LCONC -8
HOP-62 = assay: NCI-60 growth inhibition (sulforhodamine B); type: cell-based, human
A549/ATCC = assay: NCI-60 growth inhibition (sulforhodamine B); type: cell-based, human; settings: A549/ATCC (Non-Small Cell Lung Cancer), negative log of Molar conc., LCONC -8
ACHN = assay: NCI-60 growth inhibition (sulforhodamine B); type: cell-based; settings: Homo sapiens, Renal Cancer, negative log of Molar value
NCI-H522 = assay: NCI-60 growth inhibition (sulforhodamine B); type: cell-based, human; settings: NCI-H522 (Non-Small Cell Lung Cancer), negative log of Molar conc., LCONC -8
SK-MEL-28 = assay: NCI-60 growth inhibition (sulforhodamine B); type: cell-based, human; settings: SK-MEL-28 (Melanoma), negative log of Molar conc., LCONC -8
SNB-75 = assay: NCI-60 growth inhibition (sulforhodamine B); type: cell-based, human; settings: SNB-75 (CNS Cancer), negative log of Molar conc., LCONC -8
[1] = system: MCF10A PANK4 KO+PANK4 WT cells; assay: Sulforhodamine B cell growth assay, MCF10A PANK4 KO+PANK4 WT; type: cell-based, human
TK-10 = assay: NCI-60 growth inhibition (sulforhodamine B); type: cell-based; settings: Homo sapiens, TK-10, Renal Cancer, negative log of Molar value, LCONC -8, EXPID 2301NS84
SF-539 = assay: NCI-60 growth inhibition (sulforhodamine B); type: cell-based, human; settings: SF-539 (CNS Cancer), negative log of Molar conc., LCONC -8
LOXIMVI = assay: NCI-60 growth inhibition (sulforhodamine B); type: cell-based, human; settings: LOX IMVI (Melanoma), negative log of Molar conc., LCONC -8
OVCAR-4 = assay: NCI-60 growth inhibition (sulforhodamine B); type: cell-based, human; settings: OVCAR-4 (Ovarian Cancer), negative log of Molar conc., LCONC -8
OVCAR-8 = assay: NCI-60 growth inhibition (sulforhodamine B); type: cell-based, human; settings: OVCAR-8 (Ovarian Cancer), negative log of Molar conc., LCONC -8
SN12C = assay: NCI-60 growth inhibition (sulforhodamine B); type: cell-based; settings: Homo sapiens, Renal Cancer, negative log of Molar value
MALME-3M = assay: NCI-60 growth inhibition (sulforhodamine B); type: cell-based, human; settings: MALME-3M (Melanoma), negative log of Molar conc., LCONC -8
[2] = Homo sapiens, read-out: GI50 NLOGVALUE (converted)
[3] = Homo sapiens, read-out: IC50 NLOGVALUE (converted)
[4] = Homo sapiens, read-out: LC50 NLOGVALUE
[5] = LCONC -8, EXPID 2301NS84, read-out: GI50 NLOGVALUE (converted)
[6] = Homo sapiens, read-out: IC50 NLOGVALUE
[7] = Homo sapiens, read-out: GI50 NLOGVALUE

With `C[C@H](CN[C@@H](C(=O)Nc1ccc(-c2cnn(C)c2)cn1)c1ccccc1)c1ccc(C#N)cc1` [CPI-1612] the “TGI NLOGVALUE” (HCC-2998) was 4, the GI50 (HCC-2998; [2]) was 0.11 µM and the IC50 (HCC-2998; [3]) was 33.9 µM. For the same molecule, the CC50 (HCC-2998; [4]) was over 100 µM, the “TGI NLOGVALUE” (HOP-62; HOP-62 (Non-Small Cell Lung Cancer), negative log of Molar conc., LCONC -8) was 4 and the GI50 (HOP-62; Homo sapiens, HOP-62, read-out: GI50 AVGDATA (converted)) was 1.95 µM. For the same molecule, the GI50 (HOP-62; Homo sapiens, HOP-62 (Non-Small Cell Lung Cancer), negative log of Molar conc., LCONC -8, read-out: GI50 NLOGVALUE (converted)) was 1.91 µM, the IC50 (HOP-62; Homo sapiens, HOP-62 (Non-Small Cell Lung Cancer), negative log of Molar conc., LCONC -8, read-out: IC50 NLOGVALUE) was over 100 µM and the CC50 (HOP-62; Homo sapiens, HOP-62 (Non-Small Cell Lung Cancer), negative log of Molar conc., LCONC -8, read-out: LC50 NLOGVALUE) was over 100 µM. For the same molecule, the “TGI NLOGVALUE” (A549/ATCC) was 4, the GI50 (A549/ATCC; [2]) was 3.31 µM and the IC50 (A549/ATCC; [3]) was 19.1 µM. The GI50 (ACHN; [5]) was 0.0129 µM, the IC50 (ACHN; LCONC -8, EXPID 2301NS84, read-out: IC50 NLOGVALUE (converted)) was 0.0309 µM and the GI50 (NCI-H522; [2]) was 0.115 µM. For the same molecule, the IC50 (NCI-H522; [6]) was over 100 µM, the “TGI NLOGVALUE” (NCI-H522) was 4 and the GI50 (SK-MEL-28; [2]) was 14.1 µM. For the same molecule, the IC50 (SK-MEL-28; [6]) was over 100 µM, the CC50 (SK-MEL-28; [4]) was over 100 µM and the “TGI NLOGVALUE” (SK-MEL-28) was 4. For the same molecule, the GI50 (SNB-75; [7]) was over 100 µM, the IC50 (SNB-75; [6]) was over 100 µM and the CC50 (SNB-75; [4]) was over 100 µM. For the same molecule, the “TGI NLOGVALUE” (SNB-75) was 4, the IC50 ([1]; Homo sapiens, MCF-10A KO+PANK4 WT, 72 h) was 0.0089 µM and the “growth inhibition activity at 1 μM” value ([1]; PANK4 KO+WT cells, 1 μM) was “remains active”. It also gave a GI50 (TK-10; read-out: GI50 NLOGVALUE (converted)) of 0.132 µM, an IC50 (TK-10; read-out: IC50 NLOGVALUE) of over 100 µM and a CC50 (TK-10; read-out: LC50 NLOGVALUE) of over 100 µM. The GI50 (SF-539; [2]) was 2.09 µM, the IC50 (SF-539; [6]) was over 100 µM and the CC50 (SF-539; [4]) was over 100 µM. For the same molecule, the “TGI NLOGVALUE” (SF-539) was 4, the GI50 (LOXIMVI; [2]) was 0.0447 µM and the IC50 (LOXIMVI; [3]) was 0.129 µM. For the same molecule, the CC50 (LOXIMVI; [4]) was over 100 µM, the “TGI NLOGVALUE” (LOXIMVI) was 4 and the GI50 (OVCAR-4; [2]) was 2.04 µM. The IC50 (OVCAR-4; [6]) was over 100 µM, the CC50 (OVCAR-4; [4]) was over 100 µM and the “TGI NLOGVALUE” (OVCAR-4) was 4. The GI50 (OVCAR-8; [2]) was 40.7 µM, the IC50 (OVCAR-8; [6]) was over 100 µM and the CC50 (OVCAR-8; [4]) was over 100 µM. For the same molecule, the “TGI NLOGVALUE” (OVCAR-8) was 4, the GI50 (SN12C; [5]) was 0.224 µM and the IC50 (SN12C; LCONC -8, EXPID 2301NS84, read-out: IC50 NLOGVALUE) was over 100 µM. It also gave a CC50 (SN12C; LCONC -8, EXPID 2301NS84, read-out: LC50 NLOGVALUE) of over 100 µM, a GI50 (MALME-3M; [7]) of under 0.01 µM and an IC50 (MALME-3M; [6]) of over 100 µM. For the same molecule, the CC50 (MALME-3M; [4]) was over 100 µM and the “TGI NLOGVALUE” (MALME-3M) was 4.
